This is an account of results in ChEMBL document CHEMBL1157868, “Synthesis and antiviral activity of an imidazo[1,2-a]pyrrolo[2,3-c]pyridine series against the bovine viral diarrhea virus” (Eur J Med Chem, 2010).

The nature of series [1]: Cytotoxicity against MDBK cells. To be noted: cattle. Format: cell-based, Bos taurus.
Series [2] concerns Bovine viral diarrhea virus 1. In words: Antiviral activity against Bovine viral diarrhea virus infected in MDBK cells assessed as protection against virus-induced cytopathogenicity after 5 days. Type of series: functional, organism-based. To be noted: Bovine viral diarrhea virus isolates and strains, 120 h.
Series [3] can be described thus: Selectivity index, CC50 for MDBK cells to EC50 for Bovine viral diarrhea virus. Type of series: toxicity, cell-based. To be noted: cattle, read-out: Ratio CC50/EC50.

For `CCOC(=O)c1cc2c(ccn3cc(CO)nc23)[nH]1`, the CC50 in series [1] is > 100 µM. In series [2], the EC50 was found to be 53.8 µM. Besides, the selectivity ratio in series [3] is > 1.9.
The corresponding values for `CCCCOC(=O)c1cc2c(ccn3cc(C)nc23)[nH]1` are 89.8 µM, 2.1 µM and 41.8.
The corresponding values for `CCOC(=O)c1cc2c(ccn3cc(C(C)C)nc23)[nH]1` are > 100 µM, 23.1 µM and > 4.3.
Take `CCOC(=O)c1cc2c(ccn3cc(CN(C)C)nc23)[nH]1`: in series [1], the cytotoxic concentration (CC50) was > 100 µM. Moreover, in series [2], the EC50 was 46.5 µM. Moreover, the selectivity ratio in series [3] was > 2.2.
`CCOC(=O)c1cc2c(ccn3cc(C)nc23)n1C`: the CC50 in series [1] is > 100 µM. The half-maximal effective concentration (EC50) in series [2] stood at 5.6 µM. Moreover, the selectivity ratio in series [3] was > 17.9.
As for `CCOC(=O)c1cc2c(ccn3c(Br)cnc23)[nH]1`, in series [1], the CC50 is > 100 µM. Moreover, in series [2], the EC50 amounted to 14.1 µM. Also, in series [3], the selectivity ratio is > 7.1.
For `CCOC(=O)c1cc2c(ccn3cc(-c4cccc(OC)c4)nc23)[nH]1` the same measures were 31.1 µM, 0.4 µM and 71.
For `CCOC(=O)c1cc2c(ccn3c([N+](=O)[O-])c(C)nc23)[nH]1` the same measures were > 100 µM, 64.8 µM and > 1.5.
The corresponding values for `CCOC(=O)c1cc2c(ccn3cc(C(OCC)OCC)nc23)[nH]1` are 99.2 µM, 2.1 µM and 46.6.
Regarding `CCOC(=O)c1cc2c(ccn3cc(C=O)nc23)[nH]1`, in series [1], the CC50 is > 100 µM. The EC50 in series [2] is 21.8 µM. Besides, in series [3], the selectivity ratio is > 4.6.
For the compound `CCOC(=O)c1cc2c(ccn3ccnc23)[nH]1`, the CC50 in series [1] was > 100 µM. The concentration giving a half-maximal response (EC50) in series [2] was 5 µM. Besides, the selectivity ratio in series [3] is > 20.
The corresponding values for `CCOC(=O)c1cc2c(ccn3cc(-c4ccccc4)nc23)[nH]1` are > 100 µM, 3.7 µM and > 27.1.
Regarding `CCOC(=O)c1cc2c(ccn3cc(C)nc23)[nH]1`, the 50% cytotoxic concentration (CC50) in series [1] is > 100 µM. Besides, the EC50 in series [2] was 2.1 µM. Also, the selectivity ratio in series [3] was > 47.6.
The corresponding values for `CCOC(=O)c1cc2c(ccn3cc(Br)nc23)[nH]1` are > 100 µM, 13.1 µM and > 7.6.
Take `CCOC(=O)c1cc2c(ccn3cc(CCl)nc23)[nH]1`: the CC50 in series [1] is > 100 µM. Moreover, the EC50 in series [2] came to 47.6 µM. Further, the selectivity ratio in series [3] is > 2.1.
For `Cc1cn2ccc3[nH]c(CO)cc3c2n1` the same measures were > 100 µM, 43.9 µM and > 2.3.
As for `CCOC(=O)c1cc2c(ccn3cc(C(F)(F)F)nc23)[nH]1`, the CC50 in series [1] was > 100 µM. Also, in series [2], the EC50 stood at 12.8 µM. The selectivity ratio in series [3] is > 7.8.
The corresponding values for `CCOC(=O)c1cc2c(ccn3cc(C(C)(C)C)nc23)[nH]1` are > 100 µM, 50.3 µM and > 2.
For `COC(=O)c1cc2c(ccn3cc(C)nc23)[nH]1` the same measures were > 100 µM, 1.1 µM and > 87.2.
Take `COC(=O)c1cc2c(ccn3cc(C)nc23)n1C`: the CC50 in series [1] is > 100 µM. In addition, the EC50 in series [2] came to 1.7 µM. The selectivity ratio in series [3] was > 60.6.
For `CCOC(=O)c1cc2c(ccn3c(Br)c(C)nc23)[nH]1`, the 50% cytotoxic concentration (CC50) in series [1] is > 100 µM. Also, in series [2], the 50% effective concentration (EC50) is 78.9 µM. Also, in series [3], the selectivity ratio is > 1.3.
For the compound `Cc1cn2ccc3[nH]c(C(=O)O)cc3c2n1`, the CC50 in series [1] was > 100 µM. In addition, in series [2], the EC50 came out at 5.1 µM. Also, the selectivity ratio in series [3] was > 19.6.
